Reference: PubChem BioAssay AID449764 (Southern Research Specialized Biocontainment Screening …, 2010)

Tested on: Mycobacterium tuberculosis H37Rv growth inhibition, no glycerol
Test: Confirmatory growth inhibition assay, Mycobacterium tuberculosis H37Rv, absence of glycerol (AID 449764);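 also: growth read after 7 days of incubation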
Details: for IC90: measured here: IC90 growth inhibition

## COc1ccccc1C(=O)NC(=S)/C=C1/N(C)c2ccccc2C1(C)C
  IC50: 30.8 µM
  IC90: 46.8 µM

## CCC(=O)c1ccc(OCC(=O)OCC(=O)c2cc(C)n(C3CC3)c2C)cc1
  IC50: 19.2 µM
  IC90: 40.7 µM

## Cc1ccc(-n2c(C)cc(/C=N/NC(N)=S)c2C)cc1
  IC50: 12.2 µM
  IC90: 20 µM

## Cc1nn(-c2ccccc2)c(C)c1/C=N/NC(=O)c1cc(-c2cccc3ccccc23)n[nH]1
  IC50: 48.3 µM
  IC90: > 100 µM

## CCOc1cccc(C=Nc2cc(C)cc(C)c2O)c1O
  IC50: 31.2 µM
  IC90: 41.4 µM

## O=C(c1ccccc1)c1nn(-c2ccc(Cl)cc2)c(=O)cc1C(F)(F)F
  IC50: 20.1 µM
  IC90: 31.1 µM

## CCOC(=O)c1c(-c2ccc(OC)cc2)csc1NC(=O)CNCc1ccco1
  IC50: 22.3 µM
  IC90: 25.5 µM

## Cc1ccccc1Cn1ccc(=NCc2ccccc2)cc1
  IC50: 10.2 µM
  IC90: 14 µM

## CSCCC1NC(=O)N(CC(=O)N2N=C(c3ccc(Cl)cc3)CC2c2ccco2)C1=O (stereo not drawn)
  IC50: 10.9 µM
  IC90: 13.6 µM

## CCCOC(=O)c1ccc(-c2ccc(C=O)o2)cc1
  IC50: 21.1 µM
  IC90: > 100 µM

## CCOC(=O)C1CCN(C(=O)CSCc2nc(-c3ccc(OCC)cc3)oc2C)CC1
  IC50: 46 µM
  IC90: 49.2 µM

## O=c1c(C=NCCN2CCNCC2)c(O)n(C2CCCCC2)c(=O)n1C1CCCCC1
  IC50: 28.4 µM
  IC90: 32.5 µM

## Cc1cc(C(=O)CCl)c(C)n1-c1cccc([N+](=O)[O-])c1
  IC50: 2.42 µM
  IC90: 6.49 µM

## CCOC(=O)c1nnc(-c2ccccc2)nc1NCc1ccccc1
  IC50: 19.2 µM
  IC90: > 100 µM

## CCCCCCCCSc1nnc(CSc2nc3nc(C)cc(C)n3n2)o1
  IC50: 2.63 µM
  IC90: 6.27 µM

## Oc1ccccc1-c1nnc(COc2ccccc2)o1
  IC50: 19 µM
  IC90: 28.9 µM

## CC1CCN(c2nc(Cl)nc(Nc3ccc([N+](=O)[O-])cc3)n2)CC1
  IC50: 78.9 µM
  IC90: > 100 µM

## CCOc1ccc(-c2csc(/C(C#N)=C\c3ccc(O)c([N+](=O)[O-])c3)n2)cc1
  IC50: 16.7 µM
  IC90: > 100 µM

## Nc1c(C(=O)O)cnc2c(-c3ccc(Cl)cc3)cnn12
  IC50: 64 µM
  IC90: 99.8 µM

## Cc1sc2ncnc(Oc3ccc(-n4ccnc4)cc3)c2c1C
  IC50: 39.1 µM
  IC90: 61 µM

## Cc1ccc(NC(=O)COc2ccc(-n3ccnc3)cc2)cc1Cl
  IC50: 44.5 µM
  IC90: 58.7 µM

## Cc1ccc(CN2C3CCCC2CC(NC(=S)NCc2ccccc2)C3)cc1 (stereo not drawn)
  IC50: 41.1 µM
  IC90: 75.6 µM

## CCOc1ccc2nc(N/C(N)=N/C(=S)Nc3cccc(C)c3)nc(C)c2c1
  IC50: 36 µM
  IC90: > 100 µM

## COc1ccc(C2CC(c3cccs3)=Nc3ccccc3S2)cc1 (stereo not drawn)
  IC50: 41.9 µM
  IC90: 50.9 µM

## C#CCOCCOCCOCCNc1nc(N2CCN(C(=O)C(Cc3ccc(O)cc3)n3cc(C(N)CC(C)C)nn3)CC2)nc(N2CCN(C(=O)C(Cc3cc4ccccc4[nH]3)n3cc(C(N)Cc4ccc(O)cc4)nn3)CC2)n1 (stereo not drawn)
  IC50: 16.9 µM
  IC90: 23.8 µM

## Cc1ccc(-n2nnc3c(=O)oc4ccccc4c32)cc1
  IC50: 1.88 µM
  IC90: > 100 µM

## CC(/C=N/NC(=O)c1cc(-c2ccc3ccccc3c2)n[nH]1)=C\c1ccco1
  IC50: 43.8 µM
  IC90: 66.8 µM

## CCCCCCC#Cc1ccc2c(c1)COc1c3ccccc3nn1-2
  IC50: 75.5 µM
  IC90: > 100 µM

## COc1ccc(-c2cn3cc([N+](=O)[O-])ccc3n2)cc1OC
  IC50: 46.9 µM
  IC90: > 50 µM

## Cc1ccc(C(=O)N/C(=C/c2ccc(-c3cc(C(F)(F)F)ccc3Cl)o2)C(=O)NCc2cccnc2)cc1
  IC50: 73.6 µM
  IC90: > 100 µM

## C(=N\NC1=Nc2cccc3cccc1c23)/c1cccnc1
  IC50: 92.8 µM
  IC90: > 100 µM

## Cc1ccc(C)c(N2CCN(C(=O)c3ccc4nc(N5CCOCC5)sc4c3)CC2)c1
  IC50: 35.2 µM
  IC90: 47.6 µM

## CCc1cc(OCCCCNCc2ccccc2)ccc1Cl
  IC50: 26.9 µM
  IC90: 36 µM

## COc1ccccc1-n1cc2c([N+](=O)[O-])cc([N+](=O)[O-])cc2n1
  IC50: 1.98 µM
  IC90: 5.89 µM
